Data reported in patent US20080319000A1, “Use of 3,1IB-Cis-Dihydrotetrabenazine for the Treatment of Symptoms of Huntingtons Disease” (CAMBRIDGE LABORATORIES (IRELAND) LIMITED, priority 2005, published 2008).

Assays:
[1] = tested on: B6CBA-Tg(HDexon1)62Gpb/1J transgenic (R6/2) mice; test: Rotarod test in transgenic mice model of Huntington's disease; type: in vivo; settings: 5 mg/kg i.p. Day 0 to Day 3
Experimental: B6CBA-Tg(HDexon1)62Gpb/1J transgenic (R6/2) mice are transgenic for the 5-end of the human HD gene carrying (CAG) 115-(CAG) 150 repeat expansions. […] These symptoms appear between 6 and 8 weeks of age. Female B6CBa-Tg(HDexon1)62Gpb/1J transgenic mice (Jackson Laboratory, USA) were housed 5 per cage in an enriched environment under a light-dark cycle of 12 h-12 h (light on at 7.00 am, off at 7.00 pm) at a room temperature of 21±2° C., with 50±15% humidity. The mice had access to commercial mouse chow (mouse/rate breeding, ref. 9341 Provimi Kliba, Switzerland) and tap water. […] Two consecutive days before the first administration, animals were trained to use the rotarod: they were placed on an accelerating rotarod (Ugo Basile, Italy) for a maximum time of 450 seconds. They went through 2 training sessions starting with 4 rpm for 300 seconds, then staying at 40 rpm for 150 seconds. The two training sessions were given at 1 hour intervals. On the days of testing, each animal was subjected to one trial under the conditions described above. Each trial was terminated when the mouse fell or when it had stayed on the rotarod for 450 seconds. The mice were returned to their home cages after testing. Group 1: hemizygote Transgenic B6CBA-Tg(HDexon 1)62Gpb/1J mice treated with vehicle i.p. once a day for 4 days (from day 0 to day 3) Group 2: hemizygote Transgenic B6CBA-Tg(HDexon 1)62Gpb/1J mice treated with 5 mg/kg i.p. of test item once a day for 4 days (from day 0 to day 3) […] • Test item administration • Simplified Irwin test, 40 minutes after administration • Rotarod test, immediately after the simplified Irwin test • Test item administration • Simplified Irwin test, 40 min after administration • Rotarod test, immediately after simplified #Irwin test Simplified Irwin scores were analysed using non-parametric Mann-Whitney's U test. Locomotor activity data were analysed using Dunnett's t-test. Rotarod scores were analysed using the non-parametric Mann-Whitney's U-test. Statistical analyses were performed using the software Statview SE^+graphics software, Brain Power.

Male Sprague-Dawley rats = test: Spontaneous locomotor activity in rats (sedative properties); type: in vivo; settings: for Inactivity Duration / Large movements Duration / Large movements Occurrence: rats, 20 min period, mean ± SEM n=12
Experimental: A study was carried out in rats to determine whether the dihydrotetrabenazine isomers of the invention have sedative properties. […] Male Sprague-Dawley rats, (Charles River Laboratories, Saint-Germain/L'Arbresle, France), weighing 200-250 g at the beginning of the study, were used for the studies. […] The rats were allowed to acclimatize to their conditions for at least five days before commencement of the study. The rats received food ([…], France, ref. 811002) and water (tap water in water bottle) ad libitum. Solutions of each test compound in corn oil were freshly prepared on the day of the experiment. Haloperidol was prepared in hydroxyethylcellulose, 0.5% in deionized water. Either the vehicle or the test compounds were administered as a single dose (0.3, 1, 3 and 10 mg/kg, 2 mL/kg i.p.). The reference compound haloperidol (1 mg/kg) was administered i.p. […] The animals were placed in plexiglass cages under a video camera in a room with low light intensity (maximum 50 lux). At forty five minutes and 3 hours after administration, locomotor activity was determined during 20 minute periods using a video image analyzer (Videotrack, View Point, France). […] The number and duration of ambulatory movements and duration of inactivity was measured. At the end of the locomotor activity measurement (45 minutes and 3 hours), palpebral closure and arousal were be scored as follows in the plexiglass cage: […] Image tracking was performed using a video camera placed above the plexiglass cage, recording overall locomotor activity. […] The results were expressed as the means ±SEMs of the 12 individual values. Statistical analyses were carried out using ANOVA (one way) and Dunnett's t-test and with the non parametric test of Kruskal-Wallis followed by a Mann & Whitney U-test for the sedation cotation. A p value of p<0.05 was taken as indicating significance. Group size n=12 Group 1: Reference, haloperidol (1 mg/kg i.p.) Group 2: Vehicle control group (2 ml/kg i.p.) Group 3: tetrabenazine (0.3 mg/kg i.p) Group 4: tetrabenazine (1 mg/kg i.p) Group 5: tetrabenazine (3 mg/kg i.p) Group 6: tetrabenazine (10 mg/kg i.p) Group 7: […]

[2] = target: T1, monoamine oxidase isoform B (Homo sapiens, UniProt P27338); test: Monoamine oxidase B inhibition; type: biochemical
T1 sequence (P27338 1-520): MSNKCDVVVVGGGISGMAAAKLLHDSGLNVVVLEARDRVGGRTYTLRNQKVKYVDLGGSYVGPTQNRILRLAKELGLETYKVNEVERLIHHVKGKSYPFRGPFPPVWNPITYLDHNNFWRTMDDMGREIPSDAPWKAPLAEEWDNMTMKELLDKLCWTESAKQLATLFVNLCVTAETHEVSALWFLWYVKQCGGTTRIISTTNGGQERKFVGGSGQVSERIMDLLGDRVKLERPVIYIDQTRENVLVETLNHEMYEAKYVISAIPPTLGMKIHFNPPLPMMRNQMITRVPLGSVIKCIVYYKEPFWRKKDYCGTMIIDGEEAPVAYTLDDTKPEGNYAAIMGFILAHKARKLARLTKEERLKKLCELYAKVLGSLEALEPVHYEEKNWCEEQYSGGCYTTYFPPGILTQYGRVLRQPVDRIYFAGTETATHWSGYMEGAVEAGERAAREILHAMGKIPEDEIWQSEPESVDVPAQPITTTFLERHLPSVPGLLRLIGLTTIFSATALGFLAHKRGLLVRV

[3] = target: 5-hydroxytryptamine isoform 1d (Homo sapiens, UniProt P28221); test: 5-hydroxytryptamine 1d inhibition; type: binding
Chain of 5-hydroxytryptamine isoform 1d (P28221 whole entry, canonical isoform): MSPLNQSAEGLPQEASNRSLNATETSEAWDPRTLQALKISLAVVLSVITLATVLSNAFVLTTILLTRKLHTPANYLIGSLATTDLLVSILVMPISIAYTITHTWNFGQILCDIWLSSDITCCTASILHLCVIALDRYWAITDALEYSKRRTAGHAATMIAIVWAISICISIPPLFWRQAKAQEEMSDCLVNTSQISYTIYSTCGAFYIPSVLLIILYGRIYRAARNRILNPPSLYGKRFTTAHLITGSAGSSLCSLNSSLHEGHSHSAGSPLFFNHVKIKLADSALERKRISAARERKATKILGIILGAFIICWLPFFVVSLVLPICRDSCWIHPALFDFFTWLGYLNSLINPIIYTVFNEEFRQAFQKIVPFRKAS

dopamine receptor = test: Dopamine receptor binding
[4] = 0.3 mg/kg i.p., 45 minutes after administration
[5] = 0.3 mg/kg i.p., 3 hours after administration
[6] = 1 mg/kg i.p., 45 minutes after administration
[7] = 1 mg/kg i.p., 3 hours after administration
[8] = 3 mg/kg i.p., 45 minutes after administration
[9] = 3 mg/kg i.p., 3 hours after administration
[10] = 10 mg/kg i.p., 45 minutes after administration
[11] = 10 mg/kg i.p., 3 hours after administration

## COc1cc2c(cc1OC)[C@H]1C[C@H](O)[C@@H](CC(C)C)CN1CC2 (single isomer, unassigned) [Isomer B]
[1]; Day 0, prior to 1st administration
  Measured latencies to fall from Rotarod: 68.4 ± 17.7 s
[1]; Day 1
  Measured latencies to fall from Rotarod: 91.4 ± 18.1 s
[1]; Day 3
  Measured latencies to fall from Rotarod: 59.4 ± 11.2 s
[1]; Day 9
  Measured latencies to fall from Rotarod: 29.0 ± 12.1 s
[1]; Day 17
  Measured latencies to fall from Rotarod: 30.0 ± 11.0 s
[1]; Day 21
  Measured latencies to fall from Rotarod: 22.1 ± 7.3 s
[1]; Day 24
  Measured latencies to fall from Rotarod: 14.8 ± 4.3 s
[1]; Day 27
  Measured latencies to fall from Rotarod: 15.8 ± 5.2 s
[1]; Day 31
  Measured latencies to fall from Rotarod: 7.8 ± 2.4 s
Male Sprague-Dawley rats; locomotor studies carried out on rats
  sedative effect: no sedative effects were observed
Male Sprague-Dawley rats; [4]
  Inactivity Duration: 346.1 ± 36.9 s
  Large movements Duration: 72.0 ± 9.6 s
  Large movements Occurrence: 268 ± 36
Male Sprague-Dawley rats; [5]
  Inactivity Duration: 566.4 ± 44.3 s
  Large movements Duration: 28.9 ± 9.2 s
  Large movements Occurrence: 101 ± 29
Male Sprague-Dawley rats; [6]
  Inactivity Duration: 334.0 ± 23.2 s
  Large movements Duration: 87.0 ± 7.6 s
  Large movements Occurrence: 297 ± 22
Male Sprague-Dawley rats; [7]
  Inactivity Duration: 525.8 ± 28.6 s
  Large movements Duration: 34.5 ± 6.2 s
  Large movements Occurrence: 125 ± 18
Male Sprague-Dawley rats; [8]
  Inactivity Duration: 342.2 ± 33.3 s
  Large movements Duration: 89.1 ± 12.4 s
  Large movements Occurrence: 313 ± 38
Male Sprague-Dawley rats; [9]
  Inactivity Duration: 530.5 ± 38.0 s
  Large movements Duration: 31.1 ± 6.5 s
  Large movements Occurrence: 113 ± 17
Male Sprague-Dawley rats; [10]
  Inactivity Duration: 333.1 ± 26.9 s
  Large movements Duration: 84.0 ± 11.2 s
  Large movements Occurrence: 298 ± 37
Male Sprague-Dawley rats; [11]
  Inactivity Duration: 515.0 ± 53.0 s
  Large movements Duration: 30.9 ± 6.4 s
  Large movements Occurrence: 120 ± 26
Male Sprague-Dawley rats; rats, 0.3, 1, 3 and 10 mg/kg i.p., 45 minutes and 3 hours after administration
  sedative effect: no sedative effects at any time
[2]
  inhibitory activity against monoamine oxidase isoform B: no inhibitory activity
[3]
  inhibitory activity against 5-hydroxytryptamine isoform 1d: no inhibitory activity
Dopamine receptor
  dopamine receptor binding activity: only weak or non-existent
